The source made the active and inactive calls. The calls are words filed in the database; no cut-off is given here.
Assays:
[1] = biological target: T1, Mitogen-activated protein kinase 8 (Homo sapiens, UniProt P45983); details: dose 2.0 nM
[2] = biological target: T1, Mitogen-activated protein kinase 8; assay: Inhibition of JNK1 (unknown origin)
[3] = biological target: Mitogen-activated protein kinase 9 (Homo sapiens, UniProt P45984); assay: Inhibition of JNK2 (unknown origin)
A549 [4] = assay: Anti-fibrotic activity in human A549 cells assessed as reduction in TGFbeta1-induced c-Jun expression at 0.3 uM by Western blot analysis; type: functional, cell-based
A549 [5] = assay: Anti-fibrotic activity in human A549 cells assessed as reduction in TGFbeta1-induced fibronectin expression at 0.3 uM by Western blot analysis; type: functional, cell-based
[6] = biological target: T1, Mitogen-activated protein kinase 8; details: dose 10.0 nM

Sequence of Mitogen-activated protein kinase 9 (P45984 whole entry): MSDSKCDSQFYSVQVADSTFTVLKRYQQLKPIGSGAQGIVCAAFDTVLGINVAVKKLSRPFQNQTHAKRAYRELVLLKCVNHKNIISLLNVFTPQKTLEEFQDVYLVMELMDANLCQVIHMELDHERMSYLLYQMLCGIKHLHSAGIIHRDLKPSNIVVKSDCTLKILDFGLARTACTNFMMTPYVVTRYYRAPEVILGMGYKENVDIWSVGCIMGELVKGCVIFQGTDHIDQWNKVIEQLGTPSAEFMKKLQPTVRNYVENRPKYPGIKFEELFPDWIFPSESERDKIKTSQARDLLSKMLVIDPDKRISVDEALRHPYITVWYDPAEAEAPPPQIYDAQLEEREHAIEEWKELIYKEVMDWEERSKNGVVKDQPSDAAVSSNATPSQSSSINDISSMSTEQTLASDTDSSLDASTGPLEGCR
T1 sequence (P45983 whole entry): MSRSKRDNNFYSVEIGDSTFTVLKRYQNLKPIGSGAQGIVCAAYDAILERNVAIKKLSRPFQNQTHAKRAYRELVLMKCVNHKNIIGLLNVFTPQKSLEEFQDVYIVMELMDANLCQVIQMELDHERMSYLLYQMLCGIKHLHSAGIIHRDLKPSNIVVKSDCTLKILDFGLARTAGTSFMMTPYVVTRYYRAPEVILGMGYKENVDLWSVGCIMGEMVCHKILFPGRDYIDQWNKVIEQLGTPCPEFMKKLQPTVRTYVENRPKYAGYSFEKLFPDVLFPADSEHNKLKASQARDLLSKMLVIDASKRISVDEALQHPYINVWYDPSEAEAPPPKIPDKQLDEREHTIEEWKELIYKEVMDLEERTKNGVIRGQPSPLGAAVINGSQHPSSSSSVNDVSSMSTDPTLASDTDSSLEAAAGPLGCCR

Compound	inhibition [1]	further results
CN1C[C@H]2C[C@@H]1CN2C(=O)c1ccc(Nc2ncc(Br)c(Nc3ccccc3C(N)=O)n2)cc1	49.3%	–
NC(=O)c1ccccc1Nc1nc(Nc2ccc(C(=O)N3CCC4(CCCCC4)CC3)cc2)ncc1Br	inactive	–
NC(=O)c1ccccc1Nc1nc(Nc2ccc(C(=O)N3C[C@H]4C[C@@H]3CN4)cc2)ncc1Br	51.3%	–
NC(=O)c1ccccc1Nc1nc(Nc2ccc(C(=O)N3CCC4(CCCC4)CC3)cc2)ncc1Br	inactive	–
NC(=O)c1ccccc1Nc1nc(Nc2ccc(C(=O)N3CCC4(CCOCC4)CC3)cc2)ncc1Br	46.8%	–
NC(=O)c1ccccc1Nc1nc(Nc2ccc(C(=O)N3CC4CC(C3)O4)cc2)ncc1Br	10.8%	–
NC(=O)c1ccccc1Nc1nc(Nc2ccc(C(=O)N3CC4CCC(C3)N4)cc2)ncc1Br	45.1%	–
NC(=O)c1ccccc1Nc1nc(Nc2ccc(C(=O)N3C4CCC3CNC4)cc2)ncc1Br	34.4%	–
NC(=O)c1ccccc1Nc1nc(Nc2ccc(C(=O)N3C4CCC3COC4)cc2)ncc1Br	46.3%	–
CN1CC2CCC(C1)N2C(=O)c1ccc(Nc2ncc(Br)c(Nc3ccccc3C(N)=O)n2)cc1	56.6%	IC50 [2]: 1.5 nM; IC50 [3]: 12.6 nM
NC(=O)c1ccccc1Nc1nc(Nc2ccc(C(=O)N3CCC4(CCNC4)CC3)cc2)ncc1Br	49.9%	–
NC(=O)c1ccccc1Nc1nc(Nc2ccc(C(=O)N3CC4CC3CO4)cc2)ncc1Br (stereo not drawn)	76.1%	IC50 [2]: 0.8 nM; IC50 [3]: 8.3 nM; Activity (A549 [4]): Active; Activity (A549 [5]): Active
NC(=O)c1ccccc1Nc1nc(Nc2ccc(C(=O)N3CCC4(CCCO4)CC3)cc2)ncc1Br	47.6%	–
NC(=O)c1ccccc1Nc1nc(Nc2ccc(C(=O)N3CCC4(CCNCC4)CC3)cc2)ncc1Br	33.2%	–
NC(=O)c1ccccc1Nc1nc(Nc2ccc(C(=O)N3CCC4(CCOC4)CC3)cc2)ncc1Br	60.4%	IC50 [2]: 1.4 nM; IC50 [3]: 7.4 nM
NC(=O)c1ccccc1Nc1nc(Nc2ccccc2)ncc1Br	18.1%	IC50 [2]: 3 nM; IC50 [3]: 9.4 nM; inhibition [6]: 62.1%
NC(=O)c1ccccc1Nc1nc(Nc2ccc(C(=O)N3CCC4(CC3)OCCO4)cc2)ncc1Br	15%	–
